Tests used:
HIV (HTLV-III B strain) = assay: HIV replication inhibition assay (MTT, MT-4 cells); assay type: cell-based; conditions: 4 days culture, concentration at which cell cytotoxicity by virus is inhibited 50%
In short: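 MT-4 cells (2.5×10^4/well) infected with HTLV-III B stock (60 pfu) in presence of compound, cultured four days at 37 °C. Viability by MTT reduction, formazan read at 560 and 690 nm. EC50 is concentration inhibiting virus-induced cytotoxicity by 50%.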

[1] = molecular target: T1, human ether-a-go-go related gene (hERG) channel (Homo sapiens, UniProt Q12809); assay: hERG test (whole cell patch clamp, IKr); assay type: cell-based; conditions: HEK293 cells expressing hERG channel, concentration not given
T1 construct: expressed in transfected cells; host or cells: HEK293
T1 sequence (Q12809 whole entry): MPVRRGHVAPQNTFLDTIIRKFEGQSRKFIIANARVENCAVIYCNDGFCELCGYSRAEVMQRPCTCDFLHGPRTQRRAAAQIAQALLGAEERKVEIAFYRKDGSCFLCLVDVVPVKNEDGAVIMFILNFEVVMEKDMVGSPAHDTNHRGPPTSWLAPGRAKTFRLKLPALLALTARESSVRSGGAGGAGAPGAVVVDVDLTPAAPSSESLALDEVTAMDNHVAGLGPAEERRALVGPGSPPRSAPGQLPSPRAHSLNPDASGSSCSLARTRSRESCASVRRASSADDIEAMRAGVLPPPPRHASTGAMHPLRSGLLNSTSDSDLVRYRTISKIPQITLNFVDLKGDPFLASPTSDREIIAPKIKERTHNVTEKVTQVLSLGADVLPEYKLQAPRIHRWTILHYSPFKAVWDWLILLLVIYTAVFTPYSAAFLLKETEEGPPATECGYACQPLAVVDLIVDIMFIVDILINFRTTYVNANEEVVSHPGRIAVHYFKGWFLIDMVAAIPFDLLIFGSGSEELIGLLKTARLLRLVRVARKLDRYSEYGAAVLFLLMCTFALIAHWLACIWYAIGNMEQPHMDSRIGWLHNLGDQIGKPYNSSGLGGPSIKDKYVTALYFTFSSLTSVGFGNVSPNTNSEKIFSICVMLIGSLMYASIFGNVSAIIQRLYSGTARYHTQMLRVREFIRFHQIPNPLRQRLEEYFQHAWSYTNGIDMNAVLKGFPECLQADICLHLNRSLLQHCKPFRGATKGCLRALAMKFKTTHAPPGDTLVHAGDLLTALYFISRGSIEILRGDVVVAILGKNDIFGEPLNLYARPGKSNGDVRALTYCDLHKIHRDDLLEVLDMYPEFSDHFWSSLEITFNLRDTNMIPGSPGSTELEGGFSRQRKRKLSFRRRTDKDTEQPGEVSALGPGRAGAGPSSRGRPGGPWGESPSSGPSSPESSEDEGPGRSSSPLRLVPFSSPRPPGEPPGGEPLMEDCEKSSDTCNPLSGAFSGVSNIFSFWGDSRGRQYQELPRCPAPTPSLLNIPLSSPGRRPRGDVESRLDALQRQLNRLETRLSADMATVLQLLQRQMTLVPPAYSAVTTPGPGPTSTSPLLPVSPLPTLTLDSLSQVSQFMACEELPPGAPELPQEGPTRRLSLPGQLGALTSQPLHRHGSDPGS
Excerpt: For the purpose of assessing risk of an electrocardiogram QT interval prolongation, effects on delayed rectifier K+ current (IKr), which plays an important role in the ventricular repolarization process of the compound of the present invention, was studied using HEK293 cells expressing human ether-a-go-go related gene (hERG) channel.
After a cell was retained at a membrane potential of −80 mV by whole cell patch clamp method using an automated patch clamp system (PatchXpress 7000A, Axon Instruments Inc.), IKr induced by depolarization pulse stimulation at +40 mV for 2 seconds and, further, repolarization pulse stimulation at −50 mV for 2 seconds was recorded. […] From the recording IKr, an absolute value of the tail peak current was measured based on the current value at the resting membrane potential using an analysis software (DataXpress ver. 1, Molecular Devices Corporation). Further, the inhibition relative to the tail peak current before application of the test substance was calculated, and compared with the vehicle-applied group (0.1% dimethyl sulfoxide solution) to assess influence of the test substance on IKr.

CYP2D6 = molecular target: T2, CYP2D6 (Homo sapiens, UniProt P10635); assay: CYP inhibition assay, CYP2D6 (dextromethorphan O-demethylation); assay type: in vitro ADME; conditions: pooled human hepatic microsome, 15 minutes, 37° C.
T2 construct: enzyme, pooled human hepatic microsome 0.2 mg protein/mL; from tissue; host or cells: pooled human liver microsomes
T2 sequence (P10635 whole entry): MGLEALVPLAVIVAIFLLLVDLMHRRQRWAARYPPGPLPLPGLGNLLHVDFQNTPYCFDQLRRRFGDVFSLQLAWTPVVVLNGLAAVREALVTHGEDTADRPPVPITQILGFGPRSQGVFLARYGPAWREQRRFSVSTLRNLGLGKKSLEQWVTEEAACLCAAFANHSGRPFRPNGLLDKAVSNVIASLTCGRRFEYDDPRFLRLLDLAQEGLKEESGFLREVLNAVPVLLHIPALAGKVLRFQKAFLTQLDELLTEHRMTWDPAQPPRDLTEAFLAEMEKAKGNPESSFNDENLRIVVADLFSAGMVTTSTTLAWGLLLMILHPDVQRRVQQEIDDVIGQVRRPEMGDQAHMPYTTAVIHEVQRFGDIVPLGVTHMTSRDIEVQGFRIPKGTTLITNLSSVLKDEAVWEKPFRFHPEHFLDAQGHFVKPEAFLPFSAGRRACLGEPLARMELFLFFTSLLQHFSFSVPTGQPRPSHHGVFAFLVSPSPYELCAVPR
Protocol: (§1) Using commercially available pooled human hepatic microsome, and employing, as markers, 7-ethoxyresorufin O-deethylation (CYP1A2), tolbutamide methyl-hydroxylation (CYP2C9), mephenytoin 4′-hydroxylation (CYP2C19), dextromethorphan O-demethylation (CYP2D6), and terfenedine hydroxylation (CYP3A4) as typical substrate metabolism reactions of human main five CYP enzyme forms (CYP1A2, 2C9, 2C19, 2D6, 3A4), an inhibitory degree of each metabolite production amount by a test compound was assessed. […]
(§2) Each five kinds of substrates, human hepatic microsome, and a test drug in 50 mmol/L Hepes buffer as a reaction solution was added to a 96-well plate as the composition as described above, NADPH, as a cofactor was added to initiate metabolism reactions as markers and, after the incubation at 37° C. for 15 minutes, a methanol/acetonitrile=1/1 (v/v) solution was added to stop the reaction. After the centrifugation at 3000 rpm for 15 minutes, resorufin (CYP1A2 metabolite) in the supernatant was quantified by a fluorescent multilabel counter and tolbutamide hydroxide (CYP2C9 metabolite), mephenytoin 4′ hydroxide (CYP2C19 metabolite), dextrorphan (CYP2D6 metabolite), and terfenadine alcohol (CYP3A4 metabolite) were quantified by LC/MS/MS. […]

CYP1A2 = molecular target: T3, CYP1A2 (Homo sapiens, UniProt P05177); assay: CYP inhibition assay, CYP1A2 (7-ethoxyresorufin O-deethylation); assay type: in vitro ADME; conditions: pooled human hepatic microsome, 15 minutes, 37° C.
T3 construct: enzyme, pooled human hepatic microsome 0.2 mg protein/mL; from tissue; host or cells: pooled human liver microsomes
T3 sequence (P05177 1-516): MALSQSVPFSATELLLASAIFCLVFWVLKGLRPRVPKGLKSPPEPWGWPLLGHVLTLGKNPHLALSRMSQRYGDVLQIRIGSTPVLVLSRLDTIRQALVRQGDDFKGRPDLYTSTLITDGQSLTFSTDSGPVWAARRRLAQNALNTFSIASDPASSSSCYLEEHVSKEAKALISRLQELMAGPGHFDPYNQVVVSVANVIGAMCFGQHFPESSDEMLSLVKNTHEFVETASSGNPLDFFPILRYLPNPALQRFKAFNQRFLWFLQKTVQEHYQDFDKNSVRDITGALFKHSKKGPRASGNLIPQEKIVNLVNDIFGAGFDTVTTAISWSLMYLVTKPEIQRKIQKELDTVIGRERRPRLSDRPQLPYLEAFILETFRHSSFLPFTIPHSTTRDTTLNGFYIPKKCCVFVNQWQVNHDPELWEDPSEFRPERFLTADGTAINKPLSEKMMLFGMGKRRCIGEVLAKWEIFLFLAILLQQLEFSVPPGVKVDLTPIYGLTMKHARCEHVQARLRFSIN
Protocol: as §1, §2

CYP2C19 = molecular target: T4, CYP2C19 (Homo sapiens, UniProt P33261); assay: CYP inhibition assay, CYP2C19 (mephenytoin 4'-hydroxylation); assay type: in vitro ADME; conditions: pooled human hepatic microsome, 15 minutes, 37° C.
T4 construct: enzyme, pooled human hepatic microsome 0.2 mg protein/mL; from tissue; host or cells: pooled human liver microsomes
T4 sequence (P33261 whole entry): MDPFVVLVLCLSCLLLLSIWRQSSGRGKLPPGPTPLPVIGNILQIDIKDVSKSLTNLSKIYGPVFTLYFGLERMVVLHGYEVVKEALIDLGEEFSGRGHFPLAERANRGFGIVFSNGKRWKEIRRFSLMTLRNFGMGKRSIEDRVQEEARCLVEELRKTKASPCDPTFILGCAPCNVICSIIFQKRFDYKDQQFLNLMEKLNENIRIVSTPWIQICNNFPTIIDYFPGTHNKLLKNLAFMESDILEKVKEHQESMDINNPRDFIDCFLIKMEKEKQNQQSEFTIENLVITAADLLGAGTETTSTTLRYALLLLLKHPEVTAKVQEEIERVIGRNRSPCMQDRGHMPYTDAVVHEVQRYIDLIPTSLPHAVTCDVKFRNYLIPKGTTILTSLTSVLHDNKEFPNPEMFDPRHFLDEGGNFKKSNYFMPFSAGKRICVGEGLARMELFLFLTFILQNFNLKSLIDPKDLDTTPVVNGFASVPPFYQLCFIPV
Protocol: as §1, §2

[2] = assay type: in vitro ADME; conditions: 0 h
[3] = tested on: Salmonella typhimurium TA98 strain, TA100 strain; conditions: Salmonella typhimurium TA98 and TA100, with and without metabolism activating condition
Protocol: The mutagenicity of the compound of the present invention was assayed.
20 μL of freezing-stored rat typhoid bacillus (Salmonella typhimurium TA98 strain, TA100 strain) was inoculated on 10 mL of a liquid nutrient medium (2.5% Oxoid nutrient broth No. 2), and this was cultured before shaking at 37° C. for 10 hours. 9 mL of a bacterial solution of the TA98 strain was centrifuged (2000×g, 10 minutes) to remove a culturing solution. The bacteria was suspended in F buffer (K2HPO4: 3.5 g/L, KH2PO4: 1 g/L, (NH4)2SO4: 1 g/L, trisodium citrate dehydrate: 0.25 g/L, MgSO4.7H2O: 0.1 g/L), and the suspension was added to 110 mL of an Exposure medium (Micro F buffer containing Biotin: 8 μg/mL, histidine: 0.2 μg/mL, glucose: 8 mg/mL). The TA100 strain was added to 120 mL of the Exposure medium per 3.16 mL of the bacterial solution to prepare a test bacterial solution. […] Since a well containing a bacterium which has obtained the proliferation ability by mutation of an amino acid (histidine) synthesizing enzyme gene turns from purple to yellow due to a pH change, the bacterium proliferation well which has turned to yellow in 48 wells per dose is counted, and was assessed by comparing with a negative control group. […]

CYP3A4 = molecular target: T5, CYP3A4 (Homo sapiens, UniProt P08684); assay: CYP inhibition assay, CYP3A4 (terfenedine hydroxylation); assay type: in vitro ADME; conditions: pooled human hepatic microsome, 15 minutes, 37° C.
T5 construct: enzyme, pooled human hepatic microsome 0.2 mg protein/mL; from tissue; host or cells: pooled human liver microsomes
T5 sequence (P08684 whole entry): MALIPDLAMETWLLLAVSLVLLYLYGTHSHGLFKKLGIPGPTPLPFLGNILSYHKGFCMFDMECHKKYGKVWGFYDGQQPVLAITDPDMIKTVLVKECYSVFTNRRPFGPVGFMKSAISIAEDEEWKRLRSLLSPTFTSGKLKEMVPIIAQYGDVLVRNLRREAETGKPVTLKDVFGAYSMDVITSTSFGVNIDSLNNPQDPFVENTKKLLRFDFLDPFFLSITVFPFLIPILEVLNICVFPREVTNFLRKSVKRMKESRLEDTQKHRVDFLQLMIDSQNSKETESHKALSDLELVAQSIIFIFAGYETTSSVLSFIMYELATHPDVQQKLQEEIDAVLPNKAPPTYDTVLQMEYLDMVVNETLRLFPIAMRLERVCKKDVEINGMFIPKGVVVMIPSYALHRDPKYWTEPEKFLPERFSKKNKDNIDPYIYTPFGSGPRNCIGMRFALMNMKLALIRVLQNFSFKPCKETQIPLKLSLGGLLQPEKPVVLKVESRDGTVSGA
Protocol: as §1, §2

[4] = Solubility test (1% DMSO, artificial intestinal juice pH 6.8); assay type: physicochemical; conditions: pH 6.8, 1% DMSO, 16 hours at 25° C.
Protocol: The solubility of each compound was determined under 1% DMSO addition conditions. A 10 mmol/L solution of the compound was prepared with DMSO, and 6 μL of the solution was added to 594 μL of an artificial intestinal juice (:water and a 118 mL solution of 0.2 mol/L NaOH reagent are added to 250 mL of 0.2 mol/L potassium dihydrogen phosphate reagent to reach 1000 mL) with a pH of 6.8. The mixture is left standing for 16 hours at 25° C., and the mixture is vacuum-filtered. The filtrate is two-fold diluted with methanol/water=1/1 (v/v), and the compound concentration in the filtrate is measured with HPLC or LC/MS/MS by the absolute calibration method.

Row | SMILES | EC50 (HIV (HTLV-III B strain)) [µM] | inhibition ratio (hERG, IKr tail peak current) [1] [%] | IC50 (CYP2D6) [µM] | IC50 (CYP1A2) [µM] | IC50 (CYP2C19) [µM] | remaining amount of compound in liver microsomes of rat [2] [%] | mutagenicity [3] | IC50 (CYP3A4) [µM] | solubility in the artificial intestinal juice [4] [µM]
1 | Cc1c2c(c(C)c(C(OC(C)(C)C)C(=O)O)c1-c1ccc3c(c1)CCCO3)NC(=O)N(Cc1ccccc1)C2 (stereo not shown) [Compound 7] | 0.0096 | 2.6 |  |  |  |  |  |  | 
2 | Cc1c(-c2c(C)c3c(c(C)c2[C@H](OC(C)(C)C)C(=O)O)NS(=O)(=O)Cc2ccccc2-3)ccc2c1CCCO2 [Compound 10] | 0.0024 |  | ≥ 20 | ≥ 20 | ≥ 20 | 91 | negative | ≥ 20 | ≥ 50
